This note sets out measurements from paper PMC10226132, “First-in-Class Selective Inhibitors of the Lysine Acetyltransferase KAT8” (Journal of Medicinal Chemistry, 2023).

One data set has as its target T1, KAT6A (Homo sapiens, UniProt Q92794).
T1 construct: KAT6A (aa 488–778, 10 nM); purchased Reaction Biology Corporation
The data set can be described thus: HotSpot KAT assay, KAT6A. It is filed as biochemical. The conditions noted are these: for inhibition at 200 µM: read-out: % inhibition at 200 μM KAT6A (10 nM), NI = no inhibition. How it is done:
(§1) The effects of the compounds on other KATs were determined using the HotSpot KAT assay (Reaction Biology Corporation, Malvern, PA, USA) according to the supplier’s procedure. The recombinant catalytic domains of human KAT2A (aa 323–837, 15 nM), KAT2B (aa 492–658, 25 nM), KAT3B (aa 1284–1672, 1 nM), KAT6A (aa 488–778, 10 nM), KAT6B (aa 657–1069, 10 nM), and full length human KAT5 (25 nM) and KAT7 (25 nM) were used. Each enzyme was incubated with the relevant histone peptide [H3 peptide for KAT2A, KAT2B, KAT3B, KAT6A, and KAT7 (2.5–5 μM, depending on the KAT isoform); H2A peptide for KAT5 (1.25 μM); H4 peptide for KAT6B (2.5 μM)] as a substrate and radio-isotope-labeled [^3H]Acetyl-CoA (0.2–1.5 μM, depending on the KAT isoform) as an acetyl donor in the assay buffer [50 mM Tris–HCl (pH 8.0), 50 mM NaCl, 0.1 mM EDTA, 1 mM DTT, 0.1 mM PMSF, 1% DMSO] for 1 h at 30 °C in the presence or absence of various compounds (1% DMSO final) titrated in a 2-fold serial dilution starting at 200 μM. Histone peptide acetylation was assessed by liquid scintillation counting using a Tri-Carb 2800TR Liquid Scintillation Analyzer (Perkin Elmer). Experiments were performed in biological triplicates. Signal reduction compared to control was plotted (as inhibition percentage) as a function of compound concentration. In cases in which an IC50 was calculated, the values were fitted by nonlinear regression (GraphPad Prism 8.0).

Another data set addresses T2, KAT2B (Homo sapiens, UniProt Q92831).
T2 construct: KAT2B (aa 492–658, 25 nM); purchased Reaction Biology Corporation
The data set can be described thus: HotSpot KAT assay, KAT2B. It is filed as biochemical. The conditions noted are these: enzyme 25 nM; NI = no inhibition at 200 μM; mean ± SD of three independent experiments. An outline of the steps: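 Radiometric assay: recombinant human catalytic domains (KAT2B aa 492–658, 25 nM; KAT6A aa 488–778, 10 nM; KAT6B aa 657–1069, 10 nM) or full-length KAT7 (25 nM), with H3 peptide (H4 for KAT6B, 2.5 μM) and [3H]acetyl-CoA, pH 8.0, 1 h, 30 °C. Compounds 2-fold from 200 μM; scintillation counting, triplicates, IC50 by nonlinear regression.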

The next data set addresses T3, KAT7 (Homo sapiens, UniProt O95251).
T3 construct: full length human KAT5 (25 nM) and KAT7 (25 nM) were used; purchased Reaction Biology Corporation
The data set can be described thus: HotSpot KAT assay, KAT7. The conditions noted are these: for inhibition at 200 µM: read-out: % inhibition at 200 μM KAT7 (25 nM), NI = no inhibition. It is filed as biochemical. How it is done:
as §1

A further data set addresses KDAC3 (Homo sapiens, UniProt O15379). The data set can be described thus: KDAC inhibition assay, KDAC3. It is filed as biochemical. The conditions noted are these: mean of three technical replicates. On the procedure:
KDAC1, 2, 3 6, and 8 inhibition assays were performed as described previously.[52] Briefly, the relevant human recombinant KDAC was diluted in an assay buffer with the following composition: 150 mM NaCl, 25 mM Tris–HCl (pH 8.0), 2.7 mM KCl, and 1 mM MgCl2; BSA (0.1 mg/mL) was also added in the case of KDAC1. Forty microliters of this solution were added to 10 μL of each inhibitor ([…]) and 50 μL of KDAC Assay substrate (Boc-Lys-(Ac)-AMC, 7–100 μM final concentration, depending on the KDAC isoform), and the resulting solution was mixed. […] After thorough mixing of the resulting solution, the plate was covered and incubated at 37 °C for 25 min and the fluorescence (λemission = 460 nm; λexcitation = 390 nm) was measured on a EnSight Multimode Plate Reader (Perkin Elmer). The shown values are average of three technical replicates ± SD.

The test system of another data set is H1299 cells. The data set can be described thus: MTT cell proliferation assay, H1299. It is filed as cell-based, human. The conditions noted are these: for antiproliferative activity in H1299: 10, 25, 50, 100 μM, 72 h; for IC50: Homo sapiens, NCI-H1299, 72 h treatment, MTT. An excerpt:
(§2) Human commercially available AML U937, breast cancer MCF7, lung adenocarcinoma NCI-H460, H1299 and A-549, glioblastoma U251, B lymphocyte AHH1 cell lines were maintained in compete 10% foetal bovine serum (FBS,) RPMI 1640 (Euroclone, Milan, IT) medium. Human commercially available colon cancer HCT116 and HT29 lines and cervix adenocarcinoma HeLa cells were maintained in compete 10% FBS Dulbecco’s Modified Eagle Medium (DMEM) high glucose medium (Euroclone). L-Glutamine, FBS, and penicillin streptomycin mixture added to medium were obtained from Euroclone. All cell lines were cultured at 37 °C in a humidified atmosphere of 5% CO2:95% air and were tested for mycoplasma contamination routinely by RT-PCR.
(§3) For analysis of cell proliferation, cells were plated in sextuplicate on 96-well plates in complete media. After 24 h, cells were exposed to different drugs for 72 h. The inhibitory effect of different drugs was assessed by MTT (Sigma, St. Louis, MO, USA) colorimetric assays as previously reported.[67] Aqueous DMSO (0.5% v/v) was used as a control (untreated). The results are reported as “viability of drug-treated cells/viability of untreated cells” × 100 and represent the average ±SD of three independent experiments. IC50 values were using fitted by nonlinear regression using GraphPad Prism 8.0.

Data set [1] relates to human intestinal epithelial cells (InEpC). The data set can be described thus: Proliferation of human intestinal epithelial cells (InEpC). The conditions noted are these: 25, 50, 100, 200 μM, 72 h. It is filed as cell-based. On the procedure: as §3
The subject of a further data set is U937 cells. The data set can be described thus: MTT cell proliferation assay, U937. It is filed as cell-based, human. The conditions noted are these: for antiproliferative activity in U937: 10, 25, 50, 100 μM; for IC50: 72 h treatment, MTT.
Excerpt: as §2, §3
In general terms: Formazan colour is commonly taken as a measure of viable cells.

The target of another data set is T4, KAT2A (Homo sapiens, UniProt Q92830).
T4 construct: human KAT2A (aa 323–837, 15 nM); purchased Reaction Biology Corporation
The data set can be described thus: HotSpot KAT assay, KAT2A. It is filed as biochemical. The conditions noted are these: 200 μM, NI = no inhibition; for inhibition at 200 µM: read-out: % inhibition at 200 μM KAT2A (15 nM). On the procedure: as §1

In another data set the test system is HCT116 cells. The data set can be described thus: MTT cell proliferation assay, HCT116. It is filed as cell-based, human. As to conditions: for antiproliferative activity in HCT116: 10, 25, 50, 100 μM, 72 h; for IC50: Homo sapiens, HCT-116, 72 h treatment, MTT.
Excerpt: as §2, §3

T4 sequence (Q92830 323-837): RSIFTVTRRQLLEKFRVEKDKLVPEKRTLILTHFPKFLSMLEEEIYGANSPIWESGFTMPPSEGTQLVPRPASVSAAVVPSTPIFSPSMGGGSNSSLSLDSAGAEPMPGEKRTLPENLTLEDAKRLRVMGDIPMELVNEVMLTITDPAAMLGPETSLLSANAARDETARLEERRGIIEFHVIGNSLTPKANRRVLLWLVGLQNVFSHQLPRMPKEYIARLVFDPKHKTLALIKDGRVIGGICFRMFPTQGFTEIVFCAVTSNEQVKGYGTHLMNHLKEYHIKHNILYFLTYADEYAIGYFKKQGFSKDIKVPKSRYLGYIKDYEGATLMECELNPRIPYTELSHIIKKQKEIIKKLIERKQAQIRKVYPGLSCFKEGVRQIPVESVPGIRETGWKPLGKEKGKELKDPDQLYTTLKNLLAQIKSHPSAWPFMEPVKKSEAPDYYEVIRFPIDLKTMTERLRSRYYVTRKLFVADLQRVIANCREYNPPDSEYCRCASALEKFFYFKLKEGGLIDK
T1 sequence (Q92794 488-778): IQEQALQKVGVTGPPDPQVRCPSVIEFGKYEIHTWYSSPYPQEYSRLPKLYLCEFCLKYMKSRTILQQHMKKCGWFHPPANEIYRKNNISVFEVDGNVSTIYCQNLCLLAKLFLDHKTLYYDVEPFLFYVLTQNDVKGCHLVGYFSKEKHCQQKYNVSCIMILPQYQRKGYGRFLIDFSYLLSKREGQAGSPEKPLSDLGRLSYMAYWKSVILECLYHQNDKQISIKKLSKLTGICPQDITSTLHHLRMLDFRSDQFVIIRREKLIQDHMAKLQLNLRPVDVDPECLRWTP
T3 sequence (O95251 whole entry): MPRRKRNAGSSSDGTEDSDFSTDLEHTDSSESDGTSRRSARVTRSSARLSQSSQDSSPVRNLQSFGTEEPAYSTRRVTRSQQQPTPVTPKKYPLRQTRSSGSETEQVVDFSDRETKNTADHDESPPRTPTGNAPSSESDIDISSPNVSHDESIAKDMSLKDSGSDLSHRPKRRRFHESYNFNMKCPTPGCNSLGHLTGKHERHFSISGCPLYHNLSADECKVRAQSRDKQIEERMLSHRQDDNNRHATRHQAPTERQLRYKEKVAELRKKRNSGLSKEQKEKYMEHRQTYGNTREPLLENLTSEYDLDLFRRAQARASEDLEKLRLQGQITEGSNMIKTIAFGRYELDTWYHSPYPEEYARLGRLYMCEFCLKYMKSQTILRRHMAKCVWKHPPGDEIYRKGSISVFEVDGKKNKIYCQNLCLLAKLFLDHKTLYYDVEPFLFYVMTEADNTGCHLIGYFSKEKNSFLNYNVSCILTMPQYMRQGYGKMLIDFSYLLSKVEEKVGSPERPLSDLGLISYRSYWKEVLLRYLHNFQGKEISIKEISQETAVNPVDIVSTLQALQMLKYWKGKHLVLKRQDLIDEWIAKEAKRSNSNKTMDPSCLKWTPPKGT
T2 sequence (Q92831 492-658): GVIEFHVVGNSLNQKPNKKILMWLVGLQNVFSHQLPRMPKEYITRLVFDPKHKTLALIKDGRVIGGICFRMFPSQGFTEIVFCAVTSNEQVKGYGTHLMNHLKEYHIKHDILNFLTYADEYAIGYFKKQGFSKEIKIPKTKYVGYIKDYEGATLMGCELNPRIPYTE
KDAC3, sequence (O15379 whole entry, canonical isoform): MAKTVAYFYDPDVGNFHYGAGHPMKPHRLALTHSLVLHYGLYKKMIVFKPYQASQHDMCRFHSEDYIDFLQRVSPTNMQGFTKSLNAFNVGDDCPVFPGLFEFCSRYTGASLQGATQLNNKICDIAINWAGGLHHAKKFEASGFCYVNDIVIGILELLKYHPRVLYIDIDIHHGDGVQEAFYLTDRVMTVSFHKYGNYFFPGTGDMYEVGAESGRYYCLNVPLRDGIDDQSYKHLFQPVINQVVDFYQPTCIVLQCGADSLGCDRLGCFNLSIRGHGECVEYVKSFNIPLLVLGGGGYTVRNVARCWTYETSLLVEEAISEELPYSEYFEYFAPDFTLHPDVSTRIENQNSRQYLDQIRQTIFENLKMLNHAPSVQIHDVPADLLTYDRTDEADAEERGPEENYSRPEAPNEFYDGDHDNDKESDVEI
KDAC3, sequence (Q9Y618 395-489 partner limits assumed): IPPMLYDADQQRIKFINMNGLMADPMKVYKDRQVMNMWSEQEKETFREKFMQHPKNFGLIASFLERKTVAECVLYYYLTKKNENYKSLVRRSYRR

By IC50 is commonly meant the point on the concentration scale where inhibition reaches its midpoint. The term inhibition denotes the percentage by which the read-out fell short of the control. Consider `CC1=NN(c2ccc(C(=O)O)cc2)C(=O)/C1=C\c1ccc(-c2cc(C)c(C)cc2[N+](=O)[O-])o1` [VII (C646), reference compound], for which the IC50 on KAT6A (read-out: IC50 KAT6A (10 nM), control compound) was 15 µM; at KAT2B it was over 200 µM; on KAT7 (control compound, read-out: IC50 KAT7 (25 nM)) it was 8 µM. In addition, on KDAC3, at 50 µM the inhibition was 54.5%. This compound registered an inhibition at 100 µM against KDAC3 of 86.2%.

`CC1=NN(c2ccc(C(=O)O)cc2)C(=O)/C1=C\c1ccc[nH]1` [Compound 19, (Z)-4-(4-((1H-Pyrrol-2-yl)methylene)-3-methyl-5-oxo-4,5-dihydro-1H-pyrazol-1-yl)benzoic Acid]: the inhibition at 200 µM on KAT6A, on KAT7 and at KAT2A was 0% throughout. In addition, the “antiproliferative activity in H1299” value with H1299 cells is on record as “dose-dependent antiproliferative effects”. Besides, the IC50 with H1299 cells is 52.1 ± 10.6 µM; against KAT2B, over 200 µM; with U937 cells (Homo sapiens, U-937), 30.1 ± 1.7 µM; in the data set with HCT116 cells, 39.4 ± 8.2 µM. For the same compound, the “IC50 KAT2B (25 nM)” value on KAT2B is “no inhibition at 200 μM”. Also, the “effect on proliferation of InEpC” value in data set [1] was “did not significantly affect the proliferation”. Besides, the “antiproliferative activity in U937” value with U937 cells (72 h) was “dose-dependent antiproliferative effects”. Moreover, the inhibition at 50 µM in the data set on U937 cells (Homo sapiens, U-937, 50 μM, 72 h) is about 70%; against KDAC3 it was 0.5%. Further, the inhibition at 100 µM in the data set with U937 cells (Homo sapiens, U-937, 100 μM, 72 h) is over 80%; on KDAC3, 1.1%. On KAT2A, the “% inhibition at 200 μM KAT2A (15 nM)” value was “did not inhibit”. Further, the “antiproliferative activity in HCT116” value in the data set with HCT116 cells was “dose-dependent antiproliferative effects”.

With `O=C(O)c1ccc(N2N=C(c3ccccc3)/C(=C/c3ccc[nH]3)C2=O)cc1` [Compound 34, (Z)-4-(4-((1H-Pyrrol-2-yl)methylene)-5-oxo-3-phenyl-4,5-dihydro-1H-pyrazol-1-yl)benzoic Acid], the inhibition at 200 µM at KAT6A was determined as 20.9 ± 0.4%; at KAT7, 16.9 ± 0.7%; at KAT2A, 0%. The “antiproliferative activity in H1299” value in the data set on H1299 cells was “dose-dependent antiproliferative effects”. Besides, the IC50 with H1299 cells was 41.6 ± 6.8 µM; against KAT2B, over 200 µM; in the data set on U937 cells (Homo sapiens, U-937), 51.7 ± 9.5 µM; in the data set with HCT116 cells it was 46.6 ± 11.5 µM. The “effect on proliferation of InEpC” value in data set [1] is “did not significantly affect the proliferation”. Further, the “antiproliferative activity in U937” value with U937 cells (72 h) was “dose-dependent antiproliferative effects”. Further, on KAT2A, the “% inhibition at 200 μM KAT2A (15 nM)” value is “did not inhibit”. Further, at KDAC3, the inhibition at 50 µM was determined as 0.02%. The inhibition at 100 µM on KDAC3 was 0.6%. Also, the “antiproliferative activity in HCT116” value in the data set with HCT116 cells is given as “dose-dependent antiproliferative effects”.
